Results: US20030082194A1, “Compositions and methods for diagnosis and therapy of malignant mesothelioma” (priority 2000, published 2003)

How the values were obtained:
[1] = tested on: targets incubated with WT1 peptides (EL-4); assay: CTL chromium release assay, peptide-incubated targets; assay type: cell-based, mouse; details: for generation of peptide specific CTL following immunization: mice immunized with peptide, spleen cells stimulated in vitro, chromium release; for lysis of targets incubated with the relevant peptide by peptide specific CTL: chromium release assay
Method: (§1) Following immunization, spleen cells were stimulated in vitro and tested for the ability to lyse targets incubated with WT1 peptides. CTL were evaluated with a standard chromium release assay (Chen et al., 1994). […] target cells were incubated at 37° C. with 150 μCi of sodium ^51Cr for 90 min., in the presence or absence of specific peptides. Cells were washed three times and resuspended in RPMI with 5% fetal bovine serum. For the assay, 10^4 51Cr-labeled target cells were incubated with different concentrations of effector cells in a final volume of 200 μl in U-bottomed 96-well plates. Supernatants were removed after 4-7 hrs at 37° C., and the percentage specific lysis was determined by the formula:
(§2) % Specific lysis=100×(experimental release−spontaneous release)/(maximum release-spontaneous release).
P117-139, a peptide with motifs appropriate for binding to class I and class II MHC, was identified as described above using TSITES and BIMAS HLA peptide binding prediction analyses. Mice were immunized as described in Example 3. Following immunization, spleen cells were stimulated in vitro and tested for the ability to lyse targets incubated with WT1 peptides, as well as WT1 positive and negative tumor cells. CTL were evaluated with a standard chromium release assay.
Following immunization, spleen cells were stimulated in vitro with each of the 4 peptides and tested for ability to lyse targets incubated with WT1 peptides.

[2] = tested on: mouse B6 class I antigens (D^b or K^b molecules on RMA-S cells); assay: Peptide binding to C57Bl/6 murine MHC on RMA-S cells, flow cytometry (Tables 48, 49); assay type: cell-based
Method: In brief, RMA-S cells were cultured for 7 hrs at 26° C. in complete medium supplemented with 1% FCS. A total of […] RMA-S cells were added into each well of a 24-well plate and incubated either alone or with the designated peptide (25 μg/ml) for 16 hrs at 26° C. and additional 3 hrs at 37° C. in complete medium. Cells were then washed three times and stained with fluorescein isothiocyanate-conjugated anti Db or anti-Kb antibody (PharMingen, San Diego, CA). Labeled cells were washed twice, resuspended and fixed in 500 μl of PBS with 1% paraformaldehyde and analyzed for fluorescence intensity in a flow cytometer (Becton-Dickinson FACSCalibur®). The percentage of increase of D^b or K^b molecules on the surface of the RMA-S cells was measured by increased mean fluorescent intensity of cells incubated with peptide compared with that of cells incubated in medium alone.

[3] = tested on: WT1 positive tumor cell lines (TRAMP-C, BLK-SV40); assay: CTL chromium release assay, WT1 positive tumor cell lines; assay type: cell-based, mouse
Method: as §1, §2
P117-139, a peptide with motifs appropriate for binding to class I and class II MHC, was identified as described above using TSITES and BIMAS HLA peptide binding prediction analyses. Mice were immunized as described in Example 3. Following immunization, spleen cells were stimulated in vitro and tested for the ability to lyse targets incubated with WT1 peptides, as well as WT1 positive and negative tumor cells. CTL were evaluated with a standard chromium release assay. […]

[4] = tested on: T cells / spleen cells of immunized B6 mice; assay: Proliferative T cell response, thymidine incorporation assay after immunization of B6 mice with WT1 peptides; assay type: cell-based, mouse; details: for stimulation index (SI), proliferative T cell response: B6 mice immunized with WT1 peptides, thymidine incorporation, FIG. 3
[5] = molecular target: Mouse B6 (C57Bl/6) MHC class I antigens on RMA-S cells (D^b or K^b) (mouse (C57Bl/6)); assay: binding of 9-mer peptide to mouse B6 (H-2b) class I; RMA-S stabilisation assay as in Example 4
[6] = molecular target: Mouse B6 (C57Bl/6) MHC class I antigens on RMA-S cells (D^b or K^b) (mouse (C57Bl/6)); assay: RMA-S MHC stabilisation, peptide 25 ug/ml, FITC anti-Db or anti-Kb, flow cytometry (MFI increase over medium alone)
[7] = peptide 25 μg/ml, percentage of increase of Db or Kb molecules (mean fluorescent intensity) vs medium alone, Table 48
[8] = 9-mer peptides within p117-139, mouse B6 class I antigens, Table 49

## ALLPAVPSL (listed as Homo sapiens) [SEQ ID NO:34]
[1]
  generation of peptide specific CTL following immunization: peptide specific CTL lines were generated
[2]; [7]
  Binding Affinity to Mouse MHC Class I: 2.2%

## CMTWNQMNL (listed as Homo sapiens, listed as Mus musculus) [SEQ ID NO:49]
[1]
  lysis of targets incubated with the relevant peptide by peptide specific CTL: lysed targets incubated with the p235-243 peptides
[1]; listed as p235-243
  generation of peptide specific CTL following immunization: peptide specific CTL lines were generated
[2]; [7]
  Binding Affinity to Mouse MHC Class I: 33.6%
[3]
  lysis of WT1 positive tumor cells by peptide specific CTL: failed to lyse cell lines that expressed WT1 proteins

## GATLKGVAAGSSSSVKWTE (listed as Homo sapiens) [p244-262]
[4]; Vaccine A, bulk lines, peptide 25 μg/ml, 96 hr, FIG. 4A
  stimulation indices (SI), proliferative T cell responses to the immunizing peptides: No proliferative response

## NAPYLPSCL (listed as Homo sapiens) [SEQ ID NO:144]
[1]; FIG. 10A
  lysis of targets incubated with 9-mer peptide by CTL generated by immunization with p117-139: lysed
[1]
  lysis of targets incubated with the relevant peptide by peptide specific CTL: demonstrated peptide specific lysis
[2]; [8]
  Binding Affinity to Mouse MHC Class I: 79%
[2]; peptide 25 μg/ml
  binding to H-2b class I molecules / class I MHC molecules: shown to bind to H-2b class I molecules
[3]
  lysis of WT1 positive tumor cells by peptide specific CTL: showed lysis of a WT1 positive tumor cell line

## NLYQMTSQL (listed as Homo sapiens) [SEQ ID NO:147]
[2]; [7]
  Binding Affinity to Mouse MHC Class I: 5.8%

## P117-125 (PSQASSGQA) [Peptide P117-125]
[2]; [8]
  Binding Affinity to Mouse MHC Class I: 2%

## P118-126 (SQASSGQAR) [Peptide P118-126]
[2]; [8]
  Binding Affinity to Mouse MHC Class I: 2%

## P119-127 (QASSGQARM) [Peptide P119-127]
[2]; [8]
  Binding Affinity to Mouse MHC Class I: 2%

## P120-128 (ASSGQARMF) [Peptide P120-128]
[2]; [8]
  Binding Affinity to Mouse MHC Class I: 1%

## P121-129 (SSGQARMFP) [Peptide P121-129]
[2]; [8]
  Binding Affinity to Mouse MHC Class I: 1%

## P124-132 (QARMFPNAP) [Peptide P124-132]
[2]; [8]
  Binding Affinity to Mouse MHC Class I: 1%

## P125-133 (ARMFPNAPY) [Peptide P125-133]
[2]; [8]
  Binding Affinity to Mouse MHC Class I: 1%

## P127-135 (MFPNAPYLP) [Peptide P127-135]
[2]; [8]
  Binding Affinity to Mouse MHC Class I: 2%

## P128-136 (FPNAPYLPS) [Peptide P128-136]
[2]; [8]
  Binding Affinity to Mouse MHC Class I: 1%

## P129-137 (PNAPYLPSC) [Peptide P129-137]
[2]; [8]
  Binding Affinity to Mouse MHC Class I: 1%

## P131-139 (APYLPSCLE) [Peptide P131-139]
[2]; [8]
  Binding Affinity to Mouse MHC Class I: 1%

## RDLNALLPAVPSLGGGG (listed as Homo sapiens) [p6-22]
[4]
  stimulation index (SI), proliferative T cell response: 2.3
[4]; FIG. 5A, 5C
  proliferation of Vaccine A specific T cell line after single peptide in vitro stimulation: proliferation to p6-22 with no response to p117-139

## SCLESQPAI (listed as Homo sapiens) [SEQ ID NO:198]
[1]
  generation of peptide specific CTL following immunization: peptide specific CTL lines were generated
[2]; [7]
  Binding Affinity to Mouse MHC Class I: 52%

## VRRVSGVAPTLVRS (listed as Mus musculus) [P299-313]
[4]
  stimulation index (SI), proliferative T cell response: 3.3

## p221-229 (YSSDNLYQM)
[2]; [7]
  Binding Affinity to Mouse MHC Class I: 0.8%

## p228-236 (QMTSQLECM)
[2]; [7]
  Binding Affinity to Mouse MHC Class I: 1.2%

## p329-337 (GCNKRYFKL)
[2]; [7]
  Binding Affinity to Mouse MHC Class I: 1.2%

## NAPYLPSCL [WT1 peptide P130-138 (…)]
[5]
  Binding Affinity to Mouse MHC Class I (%): 79%

## FPNAPYLPS [WT1 peptide P128-136 (…)]
[5]
  Binding Affinity to Mouse MHC Class I (%): 1%

## PNAPYLPSC [WT1 peptide P129-137 (…)]
[5]
  Binding Affinity to Mouse MHC Class I (%): 1%

## QASSGQARM [WT1 peptide P119-127 (…)]
[5]
  Binding Affinity to Mouse MHC Class I (%): 2%

## SCLESQPAI [WT1 peptide human p136-144 (…)]
[6]
  Binding Affinity to Mouse MHC Class I (% increase of Db or Kb on RMA-S cells): 52%

## NLYQMTSQL [WT1 peptide p225-233 (…)]
[6]
  Binding Affinity to Mouse MHC Class I (% increase of Db or Kb on RMA-S cells): 5.8%

## QARMFPNAP [WT1 peptide P124-132 (…)]
[5]
  Binding Affinity to Mouse MHC Class I (%): 1%

## YSSDNLYQM [WT1 peptide p221-229 (…)]
[6]
  Binding Affinity to Mouse MHC Class I (% increase of Db or Kb on RMA-S cells): 0.8%

## APYLPSCLE [WT1 peptide P131-139 (…)]
[5]
  Binding Affinity to Mouse MHC Class I (%): 1%

## SSGQARMFP [WT1 peptide P121-129 (…)]
[5]
  Binding Affinity to Mouse MHC Class I (%): 1%

## QMTSQLECM [WT1 peptide p228-236 (…)]
[6]
  Binding Affinity to Mouse MHC Class I (% increase of Db or Kb on RMA-S cells): 1.2%

## ARMFPNAPY [WT1 peptide P125-133 (…)]
[5]
  Binding Affinity to Mouse MHC Class I (%): 1%

## ALLPAVPSL [WT1 peptide human p10-18 (…)]
[6]
  Binding Affinity to Mouse MHC Class I (% increase of Db or Kb on RMA-S cells): 2.2%

## MFPNAPYLP [WT1 peptide P127-135 (…)]
[5]
  Binding Affinity to Mouse MHC Class I (%): 2%

## CMTWNQMNL [WT1 peptide p235-243 (…)]
[6]
  Binding Affinity to Mouse MHC Class I (% increase of Db or Kb on RMA-S cells): 33.6%

## ASSGQARMF [WT1 peptide P120-128 (…)]
[5]
  Binding Affinity to Mouse MHC Class I (%): 1%

## GCNKRYFKL [WT1 peptide p329-337 (…)]
[6]
  Binding Affinity to Mouse MHC Class I (% increase of Db or Kb on RMA-S cells): 1.2%

## SQASSGQAR [WT1 peptide P118-126 (…)]
[5]
  Binding Affinity to Mouse MHC Class I (%): 2%

## PSQASSGQA [WT1 peptide P117-125 (…)]
[5]
  Binding Affinity to Mouse MHC Class I (%): 2%
